Experimental data reported in patent US7253258B2, “Proline rich acidic protein and uses thereof” (National University of Singapore, priority 2003, dated 2007).
Where “and” joins values, the source holds several entries; their conditions need not be identical. Equal entries are not always repeated.

B1: PRAP/-SP: truncated PRAP without signal peptide, amino acid 21 to 151 (protein)
chain: VPAPKVPIKMQVKHWPSEQDPEKAWGARVVEPPEKDDQLVVLFPVQKPKLLTTEEKPRGQGRGPILPGTKAWMETEDTLGRVLSPEPDHDSLYHPPPEEDQGEERPRLWVMPNHQVLLGPEEDQDHIYHPQ

Assays:
[1] = tested on: PRAP gene expression in HT29 cells; assay: Northern blot of PRAP gene expression in butyrate-treated HT29 cells; format: cell-based, human; settings: HT29, 5 mM butyrate
Experimental: The HT29, HCT116, HepG2 and HeLa cell lines were purchased from American Type Culture Collection (Manassas, Va.). HT29 and HCT116 cells were cultured in McCoy's 5A (Sigma Chemical Co., St. Louis, Mo.), HepG2 in DMEM and HeLa in RPMI, all supplemented with 10% fetal bovine serum (Life Technologies, Inc., Gaithersburg, Md.), at 37° C. in a 5% CO2 humidified atmosphere. Cells were treated with 5 mM sodium butyrate (final concentration in media; Life Technologies, Inc) or vehicle. Total RNA was prepared from the cells at the respective time points from three separate flasks.
In a separate experiment, total RNA from tissues and cell lines was prepared using the guanidinium thiocyanate method as previously described (MacDonald et al., 1987). 15 μg of RNA was separated by formaldehyde/agarose gel electrophoresis, transferred to nylon membrane (Qiabrane, Qiagen, Hilden, Germany), cross-linked (Stratalinker, Stratagene, La Jolla, Calif.), and hybridised to cDNA probes, as previously described (Wang et al., 1999). […] Relative mRNA levels were quantified by Typhoon phospho-imager (Amersham Bioscience, UK) and normalised against 18S levels. Normal/Tumour (N/T) ratios were obtained by dividing the normalised relative densitometric units of the normal mucosa by tumour.

[2] = tested on: PRAP expression in HT29 cells; assay: Western blot of PRAP expression in HT29 cells at different butyrate concentrations; format: cell-based, human
Source text: Cells or tissues were extracted with RIPA buffer (1×PBS, 1% Nonidet P-40, 0.5% sodium deoxychelate and 0.1% SDS. Protease inhibitors: PMSF, aprotinin, pepstatin A and leupeptin were freshly added to the RIPA buffer at the point of usage). […] The secondary antibody was either HRP-conjugated anti-rabbit IgG (BioRad, Hercules, Calif., 1:10,000) or HRP-conjugated anti-mouse antibody (Santa Cruz Biotechnology, Santa Cruz, Calif., 1:20,000). The proteins were visualized using the SuperSignal® West Dura Extended (Pierce) chemiluminescent substrate and exposed to an autoradiograph film.

HeLa cells [3] = assay: Cell numbers after transfection (overexpression) in HeLa cells, haemocytometer count after Trypan Blue; format: cell-based, human; settings: 72 h after transfection
Experimental: The cDNA fragment was cloned into pcDNA 3.1. All plasmids were sequenced to confirm identity and exclude mutations. The plasmids were transfected into HepG2 and HeLa cells using Lipofectamine (Invitrogen), according to manufacturer's recommendations. Each experiment was performed in quadruplicates and repeated three times. After 72 h, the cells were harvested and counted by a haemocytometer after Trypan Blue staining. Whole cell extracts were prepared for Western blot analysis as described.

HeLa cells [4] = tested on: HeLa cells
Experimental: (§1) Cells were subjected to selection in 1200 μg/ml G418 and the number of colonies scored manually at the end of 3 weeks.

HT29 cells = settings: HT29 stable clones, MTT, p<0.01
Experimental: as §1
The colorimetric MTT (3-(4,5-dimethylthiazol-2yl)-2,5-diphenyl-tetrazolium bromide; Sigma) assay was used as a surrogate measure of cell number at various time points. The experiment was performed in replicates of six and repeated twice.

[5] = tested on: PRAP expression in HT29 cells; assay: Real time RT-PCR of PRAP expression in HT29 cells treated with TSA, DAC or both; format: cell-based, human; settings: HT29, 72 h, TSA (300 ng), DAC (1 μm); for PRAPcp-GAPDHcp: crossing point of PRAP normalized by GAPDH: untreated 12.63
Experimental: (§2) Sigma), trichostatin A (TSA, 300 nM; Sigma) or a combination of both drugs for 72 hours. For the combined treatment, cells were treated with 1 μM DAC for 24 h followed by the addition of 300 nM TSA for another 48 h. Total RNA was extracted using the […] (Qiagen). The experiment was performed in duplicates and the average result calculated. Primers for real-time PCR were designed using the LightCycler Probe Design Software, version 1.0 (Roche, France). […] Real-time PCR was performed on the LightCycler (Roche, France) using the LightCycler-RNA amplification Kit SYBR Green I (Roche, France). The specificity of the amplification was assessed by electrophoretic separation of the amplified products and melting curve analysis. […] The efficiencies of both amplifications were calculated according to the slope of the standard curves. Relative PRAP expression was quantified after normalisation with GAPDH.

[6] = tested on: PRAP expression in HCT116 cells; assay: Real time RT-PCR of PRAP expression in HCT116 cells treated with TSA, DAC or both; format: cell-based, human; settings: HCT116, 72 h, TSA (300 ng), DAC (1 μm); for PRAPcp-GAPDHcp: crossing point of PRAP normalized by GAPDH: untreated 13.97
Experimental: as §2

Row | Molecule | Reduction in cell numbers compared to vector-transfected controls (HeLa cells [3]) | Fold of increase of PRAP expression relative to untreated HT29 [5] | PRAPcp-GAPDHcp: crossing point of PRAP normalized by GAPDH [5] | PRAPcp-GAPDHcp: crossing point of PRAP normalized by GAPDH [6] | also measured
1 | CCCC(=O)[O-].[Na+] [butyrate, sodium butyrate] |  |  |  |  | PRAP gene expression versus control non-treated cells ([1]; 6 days after treatment): 29 fold; Increase of PRAP gene expression ([1]; within 24 h): 20 fold; Butyrate concentration giving maximal PRAP expression [2]: 2 to 5 mM
2 | Proline-rich acidic protein [PRAP] | 55% |  |  |  | Size of colonies compared to controls (HeLa cells [4]; 3 weeks selection in 1200 μg/ml G418): reduction in the size; Reduction in the number of colonies (HeLa cells [4]; 3 weeks selection in 1200 μg/ml G418, versus vector): 50%; Rate of cell growth of stably transfected clones versus vector controls (HT29 cells): significantly lower rate of cell growth
3 | Nc1ncn([C@H]2C[C@H](O)[C@@H](CO)O2)c(=O)n1 [DAC, 5-aza-2′ deoxycytidine] |  | 8.5 fold | 9.37 | 13.8 | 
4 | CC(/C=C/C(=O)NO)=C\[C@@H](C)C(=O)c1ccc(N(C)C)cc1 [TSA, trichostatin A] |  | 8.4 fold | 9.38 | 11.6 | Fold of increase of PRAP expression relative to untreated HCT116 [6]: 5.2 fold and 5.17 fold
5 | B1 | did not result in a reduction in cell numbers |  |  |  | 
